The values that follow come from patent US20240423950A1, “5-MAPB OR 6-APB FOR USE IN DRUG-ASSISTED PSYCHOTHERAPY” (CLEARMIND MEDICINE INC., priority 2021, published 2024).

The conditions of data set [1]: animal models, after oral ingestion; cited from earlier work.
The subject of the next data set is human subjects. Nature of the data set: Drug-assisted psychotherapy in individuals for whom MDMA therapy is ineffective. The class given is in vivo. The text has this:
Inter alia, 5-MAPB or 6-APB-assisted psychotherapy is effective in post-traumatic stress disorder (PTSD) therapy, couple's therapy, and therapy for anxiety disorders.

`CC(N)Cc1ccc2ccoc2c1` (stereo not shown) [6-APB, 1-Benzofuran-6-yl propan-2-amine]: the apparent plasma half-life entry in data set [1] is reported as “approximately 1 hour”. Moreover, the “therapeutic efficacy in the psychotherapeutic context” value in the data set on human subjects is “significant enhancement of therapeutic efficacy”.

In the case of `CNC(C)Cc1ccc2occc2c1` (stereo not shown) [5-MAPB, 1-(Benzofuran-5-yl)-N-methylpropan-2-amine], the apparent plasma half-life result in data set [1] is on record as “approximately 1 hour”. The “therapeutic efficacy in the psychotherapeutic context” value in the data set with human subjects is given as “significant enhancement of therapeutic efficacy”.
